Here are results for 2 compounds from US20060141078A1, “Composition comprising a rice protein hydrolysate and an agent for increasing glycosaminoglycan synthesis” (L'OREAL, priority 2004, published 2006).

This test concerns adipocytes. Nature of the test: Hydrolysis of adipocyte triglycerides: release of non-esterified fatty acids (NEFA) into the medium (lipolysis). The test is classed as cell-based. The settings on record: for % activity vs Control: untreated control = 100.

Method: The adipocytes were isolated from an abdominal plasty and then incubated in the presence of collagenase, washed and taken up in test medium.
We then added the adipocyte suspension and the mixtures were incubated at 37° C. The NEFAs were assayed in the fractions of sub-adipocyte medium, after decantation. The assay was performed using an NEFA-C kit according to the manufacturer's instructions.
Two controls (a positive and a negative) of absence of interference of the product with the NEFA assay were performed.

With `Cn1c(=O)c2[nH]cnc2n(C)c1=O` [Theophylline, theophylline], the NEFA (Example 1, 1 mM) stood at 496.3 µM and the NEFA (Example 2, 1 mM) was 626.3 µM. For the same compound, the “% activity vs Control” value is listed as 630% (Example 1, 1 mM) and 1888% (Example 2, 1 mM).
On to `CC(C)NCC(O)c1ccc(O)c(O)c1` (centres unmarked) [Isoproterenol, isoproterenol], for which the NEFA came out at 472.3 µM (Example 1, 1 μM) and 613.3 µM (Example 2, 1 μM). The “% activity vs Control” value came to 600% (Example 1, 1 μM) and 1849% (Example 2, 1 μM).
